According to patent EP0362382A1, “METHOD OF STERILIZING PLANT POLLEN” (VSESOJUZNY NAUCHNO-ISSLEDOVATELSKY INST. SELSKOKHOZYAISTV. …, priority 1988, dated 1989):

test system: Hirse; assay: Field test of gametocidal activity (sterilisation of anthers), millet; format: in vivo; settings: Sorte K9009, Poltawskaja oblast; V. Periode der Organogenese; 1%ige wäßrige Emulsion; 6 kg/ha
Description: Die gametozide Aktivitat der erfindungsgemäßen Sterilisationsmittel war im Feldversuch in verschiedenen bodenklimatischen Zonen mit Teilstücken von 10 m^2 Größe in drei- bis viermaliger Wiederholung festgestellt. Jedes Sterilisationsmittel wurde mindenstens 5 Jahre lang geprüft.
Die Entwicklung der Perioden der Organogenese wird zytologisch überwacht. Die Behandlung von Pflanzen mit dem Sterilisationsmittel erfolgt am Anfang der fünften Periode der Organogenese nach Kupermann.
Mit dem Ährenschieben verwirklicht man die Isolierung von Hauptähren und anderen Stockwerken in Pergamentbeuteln. Bei Weizen und Tritikale werden Einzelisolatoren benutzt. Bei Roggen schließt man je Ähre 5 bis 7 verschiedene nebeneinander befindliche Pflanzen unter einen gemeinsamen Isolator ein. Bei Hierse wird jede Rispe getrennt isoliert. Der Sterilitätsprozentsatz (X) für Weizen, Roggen, Tritikale und Hirse wird nach der Formel [formula] ermittelt.
Die Kornzahl in nicht isolierten Ähren von Kontrollpflanzen wird bedingt für 100 % Ansetzen bei freier Bestäubung angenommen.
Um zuverlässige Angaben zu erhalten, verwendet man 20 bis 25 Isolatoren jeder Wiederholung für Weizen und Tritikale, 10 .bis 15 Isolatoren jeder Wiederholung für Roggen und Hirse.
Pflanzen der Hirse Sorte Mironowskoe 94 werden in der V. Periode der Organogenese (nach Kupermann) mit 1%iger wäßriger Emulsion von 4-Karboxybutyldezylsulfid, δ, δ' -Sulfonyldivaleriansäure, Bis(2-äthylhexyläther) der δ, δ' -Thiodivaleriansäure behandelt. Die Emulsion enthält 0,1 Masse% Kalziumalkylbenzolsulfonat mit 12 bis 14 Kohlenstoffatomen und 0,01 Masse% Dodezylsulfat. Der Verbrauch an Präparat beträgt 10 kg/ha. Als Kontrolle dienen Pflanzen, behandelt mit einem Verdünner ohne Sterilieationsmittel. Die Prüfergebnisse sind in der Tabelle 14 angegeben. […] Periode der Organogenese erhalten.
Pflanzen der Hirse Sorte K9009, Poltawskaja oblast (Poltawaer Gebiet) werden in der V.Periode der Organogenese (nach Kupermann) mit 1%iger wäßriger Emulsion von δ, δ' Thiodivaleriansäure, Natriumsälz der δ, δ'- -Thiodivaleriansäure, δ, δ' -Sulfonyldivaleriansäure, Bis([…]) der d, δ' -Thiodivaleriansäure, 4-Karboxybutyldezylsulfid behandelt. Die Emulsion enthält 0,1 Masse% Kalziumalkylbenzolsulfonat mit 12 bis 14 Kohlenstoffatomen und 0,01 Masse% Tetrahydrofuran, Der Verbrauch an Präparat beträgt 6 kg/ha. Als Kontrolle dienen . Pflanzen, behandelt mit einem Verdünner ohne Sterilisationsmittel. Die Prüfergebnisse sind in der Tabelle 15 angegeben. […] Periode der Organogenese erhalten.
Pflanzen der Hirse Sorte K-9693 Kormowoe 1 werden in der V. Periode der Organogenese (nach Kupermann) mit l%iger wäßriger Emulsion von Bis(di-n-butyläther) der δ, δ' -Thiodivaleriansäure, Natriumsalz der δ, δ' -Sulfonyldivaleriansäure behandelt. Der Verbrauch an Präparat beträgt 6 kg/ha. Als Kontrolle dienen Pflanzen, behandelt mit einem Verdünner ohne Sterilisationsmittel. Die Prüfergebnisse sind in der Tabelle 16 angegeben. […] Periode der Organogenese erhalten.

Compound | Anzahl von Körnern der Rispe bei freier Bestäubung | Anzahl von Körnern der Rispe im Isolator | Prozentsatz der Sterilität | Prozentsatz des Ansetzens von Körnern bei freier Bestäubung
O=C(O)CCCCSCCCCC(=O)O [Beispiel 68, δ, δ' Thiodivaleriansäure] | 101,4 | 0,0 | 100,0% | 78,1%
O=C([O-])CCCCSCCCCC(=O)[O-].[Na+].[Na+] [Beispiel 69, Natriumsälz der δ, δ'- -Thiodivaleriansäure] | 105,1 | 0,0 | 100,0% | 81,2%
O=C(O)CCCCS(=O)(=O)CCCCC(=O)O [Beispiel 70, δ, δ' -Sulfonyldivaleriansäure] | 77,1 | 0,0 | 100,0% | 60,0%
CCOCCOC(=O)CCCCSCCCCC(=O)OCCOCC [Beispiel 71, Bis(2-äthylglykoläther) der d, δ' -Thiodivaleriansäure] | 112,0 | 0,0 | 100,0% | 86,6%
CCCCCCCCCCSCCCCC(=O)O [Beispiel 72, 4-Karboxybutyldezylsulfid] | 100,7 | 0,0 | 100,0% | 77,8%

same assay, conditions: Sorte K-9693 Kormowoe 1; V. Periode der Organogenese; 1%ige wäßrige Emulsion; 6 kg/ha

Compound | Anzahl von Körnern der Rispe bei freier Bestäubung | Anzahl von Körnern der Rispe im Isolator | Prozentsatz der Sterilität | Prozentsatz des Ansetzens von Körnern bei freier Bestäubung
O=C([O-])CCCCS(=O)(=O)CCCCC(=O)[O-].[Na+].[Na+] [Beispiel 74, Natriumsalz der δ, δ' -Sulfonyldivaleriansäure] | 103,5 | 0,0 | 100,0% | 70,5%
Bis(di-n-butyläther) der δ, δ' -Thiodivaleriansäure [Beispiel 73] | 122,1 | 0,0 | 100,0% | 83,2%

same assay, conditions: Sorte Mironowskoe 94; V. Periode der Organogenese; 1%ige wäßrige Emulsion; 10 kg/ha

Compound | Anzahl von Körnern der Rispe bei freier Bestäubung | Anzahl von Körnern der Rispe im Isolator | Prozentsatz der Sterilität | Prozentsatz des Ansetzens von Körnern bei freier Bestäubung
CCCCCCCCCCSCCCCC(=O)O [Beispiel 65, 4-Karboxybutyldezylsulfid] | 323,7 | 0,0 | 100,0% | 88,3%
O=C(O)CCCCS(=O)(=O)CCCCC(=O)O [Beispiel 66, δ, δ' -Sulfonyldivaleriansäure] | 336,8 | 0,0 | 100,0% | 91,9%
CCCCC(CC)COC(=O)CCCCSCCCCC(=O)OCC(CC)CCCC (stereo not shown) [Beispiel 67, Bis(2-äthylhexyläther) der δ, δ' -Thiodivaleriansäure] | 312,8 | 0,0 | 100,0% | 85,3%
